This is an account of results in patent publication US20250195478A1, “DUAL INHIBITORS OF VISTA AND PD-1 PATHWAYS” (Aurigene Oncology Limited, priority 2016, published 2025).

One assay addresses T1, Recombinant mouse PD-L1 (Mus musculus, UniProt Q9EP73).
T1 construct: Fc (Fc chimera); purchased R&D Systems 1019-B7-100
Briefly: Rescue of mouse splenocyte proliferation in the presence of recombinant PD-L1 (CFSE proliferation assay). It counts as cell-based. The conditions noted are these: 100 nM compound; anti-CD3/CD28 stimulated mouse splenocytes + PD-L1; 72 h; stimulated splenocytes = 100%; read-out: PDL1 (rescue of proliferation @ 100 nM). As to the method:
Example 1: Rescue of Mouse Splenocyte Proliferation in the Presence of Recombinant PD-L1/PD-L2
Recombinant mouse PD-L1 (rm-PDL-1, cat no: 1019-B7-100; R&D Systems) were used as the source of PD-L1.
Mouse splenocytes harvested from 6-8 weeks old C57 BL6 mice; RPMI 1640 (GIBCO, Cat #11875); DMEM with high glucose (GIBCO, Cat #D6429); Fetal Bovine Serum [Hyclone, Cat #SH30071.03]; Penicillin (10000unit/mL)-Streptomycin (10,000 μg/mL) Liquid (GIBCO, Cat #15140-122); MEM Sodium Pyruvate solution 100 mM (100×), Liquid (GIBCO, Cat #11360); Nonessential amino acid (GIBCO, Cat #11140); L-Glutamine (GIBCO, Cat #25030); Anti-CD3 antibody (eBiosciences-16-0032); Anti-CD28 antibody (eBiosciences-16-0281); ACK lysis buffer (1mL) (GIBCO, Cat #-A10492); Histopaque (density-1.083 gm/mL) (SIGMA 10831); Trypan blue solution (SIGMA-T8154); 2 mL Norm Ject Luer Lock syringe-(Sigma 2014-12); 40 μm nylon cell strainer (BD FALCON 35230); Hemacytometer (Bright line-SIGMA Z359629); FACS Buffer (PBS/0.1% BSA): Phosphate Buffered Saline (PBS) pH 7.2 (HiMedia TS1006) with 0.1% Bovine Serum Albumin (BSA) (SIGMA A7050) and sodium azide (SIGMA 08591); 5 mM stock solution of CFSE: CFSE stock solution was prepared by diluting lyophilized CFSE with 180 μL of Dimethyl sulfoxide (DMSO C2H6SO, SIGMA-D-5879) and aliquoted in to tubes for further use. Working concentrations were titrated from 10 μM to 1 μM. (eBioscience-650850-85); 0.05% Trypsin and 0.02% EDTA (SIGMA 59417C); 96-well format ELISA plates (Corning CLS3390); BD FACS caliber (E6016);
Recombinant mouse B7-H1/PDL1 Fc Chimera, (rm-PD-L1 cat no: 1019-B7-100).
Splenocytes harvested in a 50 mL falcon tube by mashing mouse spleen in a 40 μm cell strainer were further treated with 1 mL ACK lysis buffer for 5 min at room temperature.
After washing with 9 mL of RPMI complete media, cells were re-suspended in 3 mL of 1×PBS in a 15 mL tube. 3 mL of Histopaque was added carefully to the bottom of the tube without disturbing overlaying splenocyte suspension. After centrifuging at 800×g for 20 min at room temperature, the opaque layer of splenocytes was collected carefully without disturbing/mixing the layers. Splenocytes were washed twice with cold 1×PBS followed by total cell counting using Trypan Blue exclusion method and used further for cell based assays.
Splenocytes were cultured in RPMI complete media (RPMI +10% fetal bovine serum+1 mM sodium pyruvate+10,000units/mL penicillin and 10,000 μg/mL streptomycin) and maintained in a CO2 incubator with 5% CO2 at 37° C.
CFSE is a dye that passively diffuses into cells and binds to intracellular proteins. 1×10^6 cells/mL of harvested splenocytes were treated with 5 μM of CFSE in pre-warmed 1×PBS/0.1% BSA solution for 10 min at 37° C. Excess CFSE was quenched using 5 volumes of ice-cold culture media to the cells and incubated on ice for 5 min. CFSE labelled splenocytes were further given three washes with ice cold complete RPMI media. CFSE labelled 1×10^5 splenocytes added to wells containing either MDA-MB231 cells (1×10^5 cells cultured in high glucose DMEM medium) or recombinant […] PDL-1 (100 ng/mL) and test compounds. Splenocytes were stimulated with anti-mouse CD3 and anti-mouse CD28 antibody (lug/mL each), and the culture was further incubated for 72 h at 37° C. with 5% CO2. Cells were harvested and washed thrice with ice cold FACS buffer and % proliferation was analysed by flow cytometry with 488 nm excitation and 521 nm emission filters.
Percent splenocyte proliferation was analysed using cell quest FACS program and percent rescue of splenocyte proliferation by compound was estimated after deduction of % background proliferation value and normalising to % stimulated splenocyte proliferation (positive control) as 100%.
Stimulated splenocytes: Splenocytes+anti-CD3/CD28 stimulation
Background proliferation: Splenocytes+anti-CD3/CD28+PD-L1
Compound proliferation: Splenocytes+anti-CD3/CD28+PD-L1+Compound […]

In another assay the target is T2, recombinant human VISTA (Homo sapiens, UniProt Q9H7M9).
T2 construct: Fc (Fc chimera); purchased R&D Systems 7126-B7
Briefly: Human PBMC IFN-γ release assay in the presence of recombinant human VISTA. To be noted: 100 nM compound, plate-coated VISTA + anti-CD3, anti-CD28, 72 h, ELISA. The class given is cell-based. How it is done:
Example 2: Rescue of Mouse Splenocyte Proliferation in the Presence of Recombinant VISTA
Vehicle: Milli Q water; RPMI 1640 (GIBCO, Cat #11875); Fetal Bovine Serum [Hyclone, Cat #SH30071.03]; Penicilin (10000 unit/ml)-Streptomycin (10,000 μg/ml) liquid (GIBCO, Cat #15140-122); MEM Sodium Pyruvate solution 100 mM (100×), Liquid (GIBCO, Cat #11360); Nonessential amino acid (GIBCO, Cat #11140); L-Glutamine (GIBCO, Cat #25030); Recombinant human VISTA (rhGi24 VISTA/B7-H5 Fc chimera (R&D systems, cat no: 7126-B7); Anti-h/m Gi24/VISTA/B7-H5 purified mouse monoclonal IgG2B (R&D systems, cat no: MAB7126); Mouse IgG2B isotype control (R&D Systems cat no: MAB 004); Anti human-CD3 antibody (eBiosciences-16-0039); Anti human-CD28 antibody (eBiosciences-16-0289); Histopaque (density-1.077 gm/ml) (SIGMA 1077); Trypan Blue solution (SIGMA-T8154); Hemacytometer (Bright line-SIGMA Z359629); FACS Buffer containing Phosphate Buffered Saline (PBS) pH 7.2; (HiMedia TS1006) with 0.1% Bovine Serum Albumin (BSA) (SIGMA A7050) and sodium azide (SIGMA 08591); 96-well format ELISA plates (Corning 3599); 96-well format ELISA plates (Corning 3361); BD FACS caliber (E6016); Centrifuge (Eppendorf 5810 R); Human IFN-γ Duo set ELISA kit (R&D Systems; cat no: DY-285).
96-well cell culture plates were pre-coated with recombinant human VISTA (2.5 μg/ml) and anti-human CD3 (2.5 μg/ml), and stored at 4° C. overnight. Anti-human VISTA and isotype control antibodies were either coated along with the VISTA or incubated for 30 min next day before addition of cells. On the next day, plates were washed with 1×PBS and then incubated with test compounds for 30 min. Isolated PBMC (0.1×10^6 cells/well) and anti-human CD28 antibodies (lug/ml) were added to the wells. The culture was further incubated for 72 h at 37° C. with 5% CO2. After 72 h of incubation the cell culture supernatants were collected after brief centrifugation at 200 g×5 min at 4° C. and processed for human IFN-γ measurement by ELISA following manufacturer's protocol (R&D Systems; DY-285).
In brief, 96-well ELISA plates were coated with 100 μl/well of capture antibody in coating buffer and incubated overnight at 4° C. Plates were washed five times with wash buffer and further blocked with 200 μl of 1× assay diluents for 1 hr at RT. Following wash step, 100 μl of cell culture supernatants were added to wells and further incubated for 2 hr at RT. Appropriate standards were also included. After wash step, plate was incubated for one hour with 100 μl/well of detection antibody. The wash step was repeated and the plate was incubated for 30 min with 100 μl/well of Avidin-HRP. The plate was washed four times with wash buffer and subsequently incubated for 15 min with 100 μl/well of substrate solution. 50 μl of stop solution was added to each well and the plate was read at 450 nm using Gen5 ver 2.05. Delta OD values were used for calculating the concentrations. The absorbance values were plotted against the standards and the concentration of IFN-γ was determined using GraphPad Prism software. Each experimental condition was carried out in triplicates.
The percent rescue of IFN-γ release of the selected compounds of present invention are set forth below wherein “A” refers to compounds having more than 70% rescue of IFN-γ release, “B” refers to compounds having rescue of IFN-γ release ranges from 50% to 69.9% and “C” refers to compounds having less than 50% rescue of IFN-γ release.

T1 sequence (Q9EP73 19-238 limits assumed): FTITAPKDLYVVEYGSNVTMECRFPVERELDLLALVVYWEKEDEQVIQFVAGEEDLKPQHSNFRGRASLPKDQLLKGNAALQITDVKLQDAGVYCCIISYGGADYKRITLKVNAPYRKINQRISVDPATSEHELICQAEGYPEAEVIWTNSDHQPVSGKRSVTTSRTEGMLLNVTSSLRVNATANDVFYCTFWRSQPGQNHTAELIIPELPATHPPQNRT
T2 sequence (Q9H7M9 with tags, fused parts or gaps limits assumed): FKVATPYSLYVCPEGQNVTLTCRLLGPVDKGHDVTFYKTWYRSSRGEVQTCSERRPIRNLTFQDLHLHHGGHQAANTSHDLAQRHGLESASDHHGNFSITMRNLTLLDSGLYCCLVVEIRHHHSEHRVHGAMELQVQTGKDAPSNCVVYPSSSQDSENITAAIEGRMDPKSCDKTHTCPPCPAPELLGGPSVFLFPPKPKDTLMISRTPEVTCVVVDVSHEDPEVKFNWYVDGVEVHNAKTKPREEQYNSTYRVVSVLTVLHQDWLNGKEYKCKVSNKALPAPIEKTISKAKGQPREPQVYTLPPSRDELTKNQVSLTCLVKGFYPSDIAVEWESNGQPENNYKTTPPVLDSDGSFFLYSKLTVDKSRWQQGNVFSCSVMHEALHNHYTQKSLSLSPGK

Consider `N[C@@H](Cc1cnc[nH]1)c1noc([C@H](CC(=O)O)NC(=O)N[C@@H](CO)C(=O)O)n1` [Compound 14], for which the activation at 0.1 µM on Recombinant mouse PD-L1 worked out at 59%. Also, at recombinant human VISTA, the “VISTA (rescue of IFN γ release @ 100 nM)” value is given as “B (rescue of IFN-γ release ranges from 50% to 69.9%)”.

Take `CC(O)[C@H](NC(=O)N[C@@H](CC(=O)O)c1nc([C@@H](N)CCCNC(=N)N)no1)C(=O)O` (some centres unmarked) [Compound 15]: at Recombinant mouse PD-L1, the activation at 0.1 µM was determined as 70%. Moreover, the “VISTA (rescue of IFN γ release @ 100 nM)” value on recombinant human VISTA is “C (less than 50% rescue of IFN-γ release)”.

Take `CC(O)[C@H](NC(=O)N[C@@H](CC(N)=O)c1nc(C2(N)CCCCC2)no1)C(=O)O` (some centres unmarked) [Compound 19]: at Recombinant mouse PD-L1, the activation at 0.1 µM is 86%. The “VISTA (rescue of IFN γ release @ 100 nM)” value at recombinant human VISTA is “B (rescue of IFN-γ release ranges from 50% to 69.9%)”.

Consider `CC(O)[C@H](NC(=O)N[C@@H](CC(N)=O)c1nc([C@H](N)CO)no1)C(=O)O` (some centres unmarked) [Compound 21], for which, on Recombinant mouse PD-L1, the activation at 0.1 µM is 64%. In addition, the “VISTA (rescue of IFN γ release @ 100 nM)” value on recombinant human VISTA is on record as “A (more than 70% rescue of IFN-γ release)”.

For the compound `CC(O)[C@@H](NC(=O)N[C@H](CC(N)=O)c1nc([C@H](N)CO)no1)C(=O)O` (some centres unmarked) [Compound 22], the activation at 0.1 µM at Recombinant mouse PD-L1 is 83%. For the same compound, the “VISTA (rescue of IFN γ release @ 100 nM)” value on recombinant human VISTA is on record as “A (more than 70% rescue of IFN-γ release)”.

Regarding `CC(O)[C@@H](NC(=O)N[C@@H](CC(N)=O)c1nc([C@H](N)CO)no1)C(=O)O` (some centres unmarked) [Compound 23], the activation at 0.1 µM on Recombinant mouse PD-L1 amounted to 72%. Further, on recombinant human VISTA, the “VISTA (rescue of IFN γ release @ 100 nM)” value is “A (more than 70% rescue of IFN-γ release)”.

On to `CC(O)[C@H](NC(=O)N[C@H](CC(N)=O)c1nc([C@H](N)CO)no1)C(=O)O` (some centres unmarked) [Compound 24], for which the activation at 0.1 µM on Recombinant mouse PD-L1 was 55%. The “VISTA (rescue of IFN γ release @ 100 nM)” value on recombinant human VISTA is listed as “A (more than 70% rescue of IFN-γ release)”.
